Measured values: US20140275090A1, “BILE ACID RECYCLING INHIBITORS FOR TREATMENT OF PRIMARY SCLEROSING CHOLANGITIS AND INFLAMMATORY BOWEL DISEASE” (Lumena Pharmaceuticals, Inc., priority 2013, published 2014)

What was measured:
[1] = Systemic exposure of LUM001 in patients under 18 years (study NB-00-02-014); type: in vivo, human; settings: QD, day eight
Procedure: LUM001 has been administered to forty patients under the age of 18 years old. […] The drug was administered once-a-day (QD) in the morning for fourteen days. […] These doses are similar to those using to treat patients with PSC-IBD or PSC.

fecal bile acids = assay: Fecal bile acid measurement, rats dosed 4 days; type: in vivo, Wistar rat; settings: for Increase over Vehicle (Delta): fecal bile acids, rat, 4 days
Procedure: Male Wistar rats (Charles River Laboratories) weighing 275-300 grams were single-housed in a constant temperature environment with alternating 12 hour light and dark cycles. All animals had continuous access to a commercial rodent diet as well as water. In each study rats were randomly assigned to either vehicle or treatment groups and were administered intragastric doses of drug dissolved in aqueous 0.2% (v/v) Tween 80 (2 ml/kg body weight). The animals were dosed in the morning between 9:00 and 10:00 a.m. for four consecutive days. Fecal samples were collected on papers underneath each cage during the final 48 hour period of the study and analyzed for bile acid content.
Cage papers containing the 48-hour fecal samples were collected at approximately 9:00 a.m. on the final day and used to determine the individual fecal bile acid (FBA) concentration for each animal. Fecal samples from each rat were weighed and a weight of distilled water (1 gram/mL) equal to 2 times the total weight of feces was added to each sample container (e.g., 20 mL water to 10 grams feces). The containers were stored overnight at 4° C. Each sample was homogenized for approximately 45 seconds using a small food processor to yield a homogeneous slurry. 1.4 grams of the homogenate was weighed into 16×100 polypropylene tubes and 2.6 mL of tertiary butanol/distilled water (2:0.6) added to yield a final concentration of 50% (v/v) tertiary butanol in water. The sample was extracted by incubation for 45 minutes in a 37° C. water bath, and subjected to centrifugation at 3000×g for 13 minutes and the supernatant extract collected.
The concentration of bile acids […] in the extract was determined using a 96-well enzymatic assay system (4,5). 20 μl aliquots of each butanol extract was added to two sets of triplicate wells in a 96-well assay plate (one set on each half of the plate). Standardized sodium taurocholate solutions (0.2 and 0.9 mM) and standardized fecal extract solutions (previously made from pooled fecal samples collected from control and drug-treated rats) were analyzed in parallel to provide a bile acid standard curve and internal quality control samples, respectively. 20 μl aliquots of the sodium taurocholate standard were serially diluted to generate a standard curve and were added to two separate sets of triplicate wells.
To each well, 230 μl of reaction mixture containing 1M hydrazine hydrate, 0.1 M pyrophosphate and 0.46 mg/ml NAD was added. […] Following a 60 minute incubation at room temperature, the optical density at 340 nm was measured and the mean of each set of triplicate wells was calculated. […] A mean value for the increase in FBA for each group was determined and compared to the vehicle group used, to determine compound dosing efficacy. […]

systemic exposure [1]: minimally absorbed
Structure (SMILES): CCCCC1(CCCC)CS(=O)(=O)c2ccc(N(C)C)cc2[C@@H](c2ccc(OCc3ccc(C[N+]45CCN(CC4)CC5)cc3)cc2)[C@H]1O [LUM001]
Increase over Vehicle (Delta) (fecal bile acids; Q.D. 0.002 mg/kg/day): 4.1
Increase over Vehicle (Delta) (fecal bile acids; Q.D. 0.008 mg/kg/day): 5.9
Increase over Vehicle (Delta) (fecal bile acids; Q.D. 0.4 mg/kg/day): 47.0
effect on fecal bile acids (fecal bile acids; rats, all doses): significantly increased
